Here are results for 11 compounds from patent publication US6291657A (priority 1993, dated 2001).

The subject of assay [1] is UDP-glucose:N-acylsphingosine glucosyltransferase. The experiment in a line: Inhibition of UDP-glucose:N-acylsphingosine glucosyltransferase. As to conditions: for IC50: highest concentrations tested, read-out: IC50 (not inhibitory). In kind it is biochemical, rat brain, mouse macrophage (WEHI-3B).
For assay [2], the system named is glycolipid biosynthesis in HL-60 cells. The experiment in a line: Inhibition of glycolipid biosynthesis in HL-60 cells, [14C]-palmitic acid labelling, 1D-TLC.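 As to all read-outs here: cells cultured 24 h with or without test compound, total cellular lipids resolved by one-dimensional TLC and detected by autoradiography, inhibition shown as missing Glc-Cer and gangliosides versus untreated cells.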 The settings on record: for effect of N-alkyl chain length on inhibition of glycolipid biosynthesis (loss of detectable Glc-Cer): HL-60, 0.5 mM, 1D-TLC (FIG. 4); for inhibition of glycolipid biosynthesis: HL-60, 500 μM, 1D-TLC (FIG. 1). It counts as cell-based, human.

The IC50 is the point on the concentration scale where inhibition reaches its midpoint.

Entries after “also recorded” stand apart in the source; their conditions may differ.

Turning to `OC[C@H]1NC[C@H](O)[C@@H](O)[C@H]1O` [DGJ, Deoxygalactonojirimycin], in assay [1] (highest concentration tested 5.0 mM (FIG. 8)), the “inhibition of glucose transfer” value is “not inhibitory at the highest concentration tested”. Besides, in assay [1], the IC50 is greater than 5 mM. Also, the “effect of N-alkyl chain length on inhibition of glycolipid biosynthesis (loss of detectable Glc-Cer)” value in assay [2] is “no effect; also recorded: inactive”.

On to `OC[C@H]1NC[C@H](O)[C@@H](O)[C@@H]1O` [DNJ, deoxynojirimycin], for which the “inhibition of glucose transfer” value in assay [1] (highest concentration tested 6.1 mM (FIG. 8)) is on record as “not inhibitory at the highest concentration tested”. Also, the IC50 in assay [1] is greater than 5 mM. In assay [2], the “effect of N-alkyl chain length on inhibition of glycolipid biosynthesis (loss of detectable Glc-Cer)” value is given as “no effect”.

As for `CCN1C[C@H](O)[C@@H](O)[C@@H](O)[C@H]1CO` [N-ethyl DGJ], the “effect of N-alkyl chain length on inhibition of glycolipid biosynthesis (loss of detectable Glc-Cer)” value in assay [2] was “no effect; also recorded: inactive”.

As for `CCCCCCN1C[C@H](O)[C@@H](O)[C@H](O)[C@H]1CO` [N-hexyl DNJ], the “effect of N-alkyl chain length on inhibition of glycolipid biosynthesis (loss of detectable Glc-Cer)” value in assay [2] is given as “completely inhibited glycolipid biosynthesis”.

With `CN1C[C@H](O)[C@@H](O)[C@@H](O)[C@H]1CO` [N-methyl DGJ], in assay [2], the “effect of N-alkyl chain length on inhibition of glycolipid biosynthesis (loss of detectable Glc-Cer)” value is “no effect; also recorded: inactive”.

Regarding `CN1C[C@H](O)[C@@H](O)[C@H](O)[C@H]1CO` [N-methyl DNJ], the “effect of N-alkyl chain length on inhibition of glycolipid biosynthesis (loss of detectable Glc-Cer)” value in assay [2] is given as “no effect”.

`CCCN1C[C@H](O)[C@@H](O)[C@@H](O)[C@H]1CO` [N-propyl DGJ, N-propyl deoxygalactonojirimycin]: the “effect of N-alkyl chain length on inhibition of glycolipid biosynthesis (loss of detectable Glc-Cer)” value in assay [2] was “partial inhibitory activity; also recorded: partially active”.

Consider `CCCN1C[C@H](O)[C@@H](O)[C@H](O)[C@H]1CO` [N-propyl DNJ], for which, in assay [2], the “effect of N-alkyl chain length on inhibition of glycolipid biosynthesis (loss of detectable Glc-Cer)” value is “partial inhibitory activity”.

Consider `CCCCN1C[C@@H](O)[C@H](O)[C@H](O)[C@@H]1C` [NB-DFJ], for which, in assay [2], the “inhibition of glycolipid biosynthesis” value is reported as “without effect”.

In the case of `CCCCN1C[C@@H](O)[C@@H](O)[C@H](O)[C@H]1CO` [NB-DMJ, N-butyl deoxymannojirimycin], the “inhibition of glycolipid biosynthesis” value in assay [2] is “without effect”.

With `CCCCN1C[C@H](NC(C)=O)[C@@H](O)[C@H](O)[C@H]1CO` [NB-NAG, N-butyl 2-acetamido-1,2,5-trideoxy-1,5-imino-D-glucitol], the “inhibition of glycolipid biosynthesis” value in assay [2] is “without effect”.
